Results published in patent US11168073B2, “3,3-difluoroallylamines or salts thereof and pharmaceutical compositions comprising the same” (YUHAN CORPORATION, priority 2018, dated 2021).
Where a name gives a salt, the structure may show the parent alone. Read-outs that look alike come from different tables or passages of the source.

Tests used:
Format in all cases: biochemical
[1] = biological target: T1, recombinant human DAO (diamine oxidase) (Homo sapiens, UniProt P19801); test: Activity evaluation on recombinant human DAO (Amplex Red/HRP-coupled assay, 1 mM putrescine substrate); conditions: read-out: Inhibitory Activity (IC50, nM) DAO
T1 construct: purchased R&D systems
T1 sequence (P19801 20-751): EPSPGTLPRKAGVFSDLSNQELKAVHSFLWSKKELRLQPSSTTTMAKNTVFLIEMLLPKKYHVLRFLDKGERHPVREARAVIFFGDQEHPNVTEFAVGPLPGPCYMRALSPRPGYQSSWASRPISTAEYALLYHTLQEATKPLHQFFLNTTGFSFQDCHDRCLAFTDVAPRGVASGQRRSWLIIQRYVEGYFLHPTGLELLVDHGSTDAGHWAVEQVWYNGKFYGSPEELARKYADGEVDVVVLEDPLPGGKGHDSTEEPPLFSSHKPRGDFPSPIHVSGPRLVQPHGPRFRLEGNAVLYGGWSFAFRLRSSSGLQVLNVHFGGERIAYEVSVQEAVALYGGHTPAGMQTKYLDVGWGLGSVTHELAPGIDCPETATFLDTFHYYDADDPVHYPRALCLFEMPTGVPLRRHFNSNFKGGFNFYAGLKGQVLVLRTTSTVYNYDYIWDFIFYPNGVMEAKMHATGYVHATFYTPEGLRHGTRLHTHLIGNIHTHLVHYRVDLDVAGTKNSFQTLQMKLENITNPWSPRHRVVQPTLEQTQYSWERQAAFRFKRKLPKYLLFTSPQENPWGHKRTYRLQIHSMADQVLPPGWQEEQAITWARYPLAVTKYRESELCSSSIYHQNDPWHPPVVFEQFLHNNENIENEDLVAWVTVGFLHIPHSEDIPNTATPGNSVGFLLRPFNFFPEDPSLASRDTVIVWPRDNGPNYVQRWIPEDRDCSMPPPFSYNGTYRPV
Method: (§1) The compounds according to the present technology were evaluated in terms of activity on recombinant human VAP-1 (R&D systems) by measuring the level of hydrogen peroxide in horseradish peroxidase (HRP)-coupled reaction using Amplex Red Hydrogen Peroxide Assay Kit (Molecular Probes, Invitrogen, USA). The experiment was carried out at room temperature using benzylamine as a substrate. In the HRP-coupled reaction, hydrogen peroxide oxidation of 10-acetyl-3,7-dihydroxyphenoxazine (Amplex Red reagent) produces resorufin, which is a highly fluorescent compound. Briefly, the test compound was dissolved in dimethyl sulfoxide (DMSO) at a concentration of 20 mM. The dose-response assessment was made by 1:3 serial dilution in DMSO, thereby creating a 8 point curve. The concentration of the upper part was controlled according to the efficacy of the compounds, followed by the dilution with a reaction buffer solution to obtain a final DMSO concentration of less than 1%. To each well of a 96 black well plate, human VAP-1 purified in 50 mM sodium phosphate buffer solution (pH7.4) was added. The test compounds dissolved in DMSO were incubated with the human VAP-1 enzymes at 37° C. for 30 minutes. After 30-minute incubation, each well was added with a reaction mixture containing 200 uM Amplex Red reagent prepared from 50 mM sodium phosphate buffer solution (pH 7.4), 1 mM benzylamine, and 1 U/mL HRP. Fluorescence intensity was measured at several time points during 1-2 hours using a microplate reader (Flexstation3, Molecular Devices) under the wavelength condition exciting at 544 nm and reading the emission at 590 nm. The inhibitory effect of the compounds was measured as a decrease (%) in the signal rate as compared to the control group without any inhibitor (only diluted DMSO). Data was fixed to a logistic model with four variables and IC50 value was calculated using GraphPad Prism program.
(§2) In addition, the compounds according to the present technology were evaluated in terms of activity on a recombinant human MAO-A (monoamine oxidase-A, Sigma-Aldrich) and a recombinant human MAO-B (monoamine oxidase-B, Sigma-Aldrich) by using as substrates, 0.5 mM tyramine and 1 mM benzylamine, respectively, with a method similar to the activity evaluation method for recombinant human VAP-1. The compounds according to the present technology were also evaluated in terms of activity on a recombinant human DAO (diamine oxidase, R&D systems) by using as a substrate 1 mM putrescine with a method similar to the activity evaluation method for recombinant human VAP-1.

[2] = biological target: T2, recombinant human MAO-A (monoamine oxidase-A) (Homo sapiens, UniProt P21397); test: Activity evaluation on recombinant human MAO-A (Amplex Red/HRP-coupled assay, 0.5 mM tyramine substrate); conditions: read-out: Inhibitory Activity (IC50, nM) MAO-A
T2 construct: purchased Sigma-Aldrich
T2 sequence (P21397 1-527): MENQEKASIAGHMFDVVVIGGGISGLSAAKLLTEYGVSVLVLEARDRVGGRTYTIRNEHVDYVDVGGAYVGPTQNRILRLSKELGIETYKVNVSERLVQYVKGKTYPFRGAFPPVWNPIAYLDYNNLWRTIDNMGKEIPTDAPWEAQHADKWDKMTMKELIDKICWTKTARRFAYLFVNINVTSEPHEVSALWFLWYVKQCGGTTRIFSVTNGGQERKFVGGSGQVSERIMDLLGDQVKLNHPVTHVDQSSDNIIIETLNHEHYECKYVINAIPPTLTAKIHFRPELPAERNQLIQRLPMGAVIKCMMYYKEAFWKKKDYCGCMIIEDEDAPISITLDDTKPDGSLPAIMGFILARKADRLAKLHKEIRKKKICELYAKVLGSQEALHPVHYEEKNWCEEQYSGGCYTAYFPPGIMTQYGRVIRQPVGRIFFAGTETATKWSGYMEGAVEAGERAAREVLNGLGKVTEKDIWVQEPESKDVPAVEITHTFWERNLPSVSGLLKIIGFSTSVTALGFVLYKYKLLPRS
Method: as §1, §2

recombinant human VAP-1 = biological target: T3, recombinant human VAP-1 (Homo sapiens, UniProt Q16853); test: Activity evaluation on recombinant human VAP-1 (Amplex Red/HRP-coupled hydrogen peroxide assay, benzylamine substrate); conditions: read-out: Inhibitory Activity (IC50, nM) human VAP-1
T3 construct: purchased R&D systems
T3 sequence (Q16853 1-763): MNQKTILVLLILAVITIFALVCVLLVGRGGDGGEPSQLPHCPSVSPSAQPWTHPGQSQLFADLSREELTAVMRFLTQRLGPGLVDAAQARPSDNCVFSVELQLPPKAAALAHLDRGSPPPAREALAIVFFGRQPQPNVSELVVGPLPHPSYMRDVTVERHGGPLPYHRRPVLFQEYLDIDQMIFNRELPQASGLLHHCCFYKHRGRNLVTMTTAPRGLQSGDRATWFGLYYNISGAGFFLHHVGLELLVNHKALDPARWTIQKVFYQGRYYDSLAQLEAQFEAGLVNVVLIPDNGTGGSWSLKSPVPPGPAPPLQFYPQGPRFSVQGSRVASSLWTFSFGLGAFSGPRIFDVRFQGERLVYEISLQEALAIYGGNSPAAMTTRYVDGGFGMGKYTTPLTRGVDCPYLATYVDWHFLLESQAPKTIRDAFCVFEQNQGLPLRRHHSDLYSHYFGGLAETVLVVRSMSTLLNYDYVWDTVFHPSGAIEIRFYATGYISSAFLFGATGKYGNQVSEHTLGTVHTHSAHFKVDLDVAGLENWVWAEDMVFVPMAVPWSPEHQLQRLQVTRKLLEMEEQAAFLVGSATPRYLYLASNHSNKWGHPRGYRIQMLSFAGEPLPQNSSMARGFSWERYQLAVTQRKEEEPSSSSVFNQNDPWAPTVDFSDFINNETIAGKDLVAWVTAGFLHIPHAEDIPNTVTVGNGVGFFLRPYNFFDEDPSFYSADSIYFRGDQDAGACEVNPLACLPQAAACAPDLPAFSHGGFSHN
Method: as §1

[3] = biological target: T4, recombinant human MAO-B (monoamine oxidase-B) (Homo sapiens, UniProt P27338); test: Activity evaluation on recombinant human MAO-B (Amplex Red/HRP-coupled assay, 1 mM benzylamine substrate); conditions: read-out: Inhibitory Activity (IC50, nM) MAO-B
T4 construct: purchased Sigma-Aldrich
T4 sequence (P27338 1-520): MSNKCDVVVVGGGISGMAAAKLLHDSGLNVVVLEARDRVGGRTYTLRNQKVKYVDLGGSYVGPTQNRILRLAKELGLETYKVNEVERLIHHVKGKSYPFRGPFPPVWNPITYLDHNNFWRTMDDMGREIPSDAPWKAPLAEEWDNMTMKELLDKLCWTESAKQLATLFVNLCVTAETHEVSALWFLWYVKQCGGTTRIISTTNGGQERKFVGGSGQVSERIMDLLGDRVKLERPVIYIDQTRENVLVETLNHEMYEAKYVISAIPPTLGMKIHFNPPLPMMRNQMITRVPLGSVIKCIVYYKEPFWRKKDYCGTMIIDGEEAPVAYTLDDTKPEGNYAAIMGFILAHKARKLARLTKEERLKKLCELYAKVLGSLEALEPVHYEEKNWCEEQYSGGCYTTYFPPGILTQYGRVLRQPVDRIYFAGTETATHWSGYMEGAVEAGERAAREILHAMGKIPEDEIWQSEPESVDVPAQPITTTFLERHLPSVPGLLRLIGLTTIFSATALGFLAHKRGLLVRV
Method: as §1, §2

[4] = recombinant human VAP-1, 30 min preincubation at 37° C., 1 mM benzylamine
[5] = recombinant human VAP-1, benzylamine substrate

Row | Compound | IC50 ([1]; 1 mM putrescine) [nM] | IC50 ([2]; 0.5 mM tyramine) [nM] | IC50 (recombinant human VAP-1; [4]) [nM] | IC50 ([3]; 1 mM benzylamine) [nM] | IC50 ([1]; 1 mM putrescine substrate) [nM] | IC50 ([2]; 0.5 mM tyramine substrate) [nM] | IC50 (recombinant human VAP-1; [5]) [nM] | IC50 ([3]; 1 mM benzylamine substrate) [nM]
1 | Cc1cc(-c2ccc3c(c2)CN(C)C(=O)N3)cnc1-n1cnn(CC(CN)=C(F)F)c1=O [Example 250, 6-[6-[1-[2-(aminomethyl)-3,3-difluoro-allyl]-5-oxo-1,2,4-triazol-4-yl]-5-methyl-3-pyridyl]-3-methyl-1,4-dihydroquinazolin-2-one Trifluoroacetate] |  |  |  |  | 4300 | > 100000 | 0.2 | > 100000
2 | NCC(Cn1ncn(-c2cccc(-c3ccc4c(c3)NC(=O)OC4)n2)c1=O)=C(F)F [Example 219, 7-[6-[1-[2-(aminomethyl)-3,3-difluoro-allyl]-5-oxo-1,2,4-triazol-4-yl]-2-pyridyl]-1,4-dihydro-3,1-benzoxazin-2-one Trifluoroacetate] |  |  |  |  | 47 | > 100000 | 0.2 | 68500
3 | NCC(Cn1ncn(-c2ccc(-c3ccc4c(c3)OCO4)cc2F)c1=O)=C(F)F [Example 35, 2-[2-(aminomethyl)-3,3-difluoro-allyl]-4-[4-(1,3-benzodioxol-5-yl)-2-fluoro-phenyl]-1,2,4-triazol-3-one Trifluoroacetate] | 540 | > 100000 | 0.3 | 33 |  |  |  | 
4 | CN(C)c1ncc(-c2ccc(Cn3cnn(CC(CN)=C(F)F)c3=O)s2)cc1F [Example 115, 2-[2-(aminomethyl)-3,3-difluoro-allyl]-4-[[5-[6-(dimethylamino)-5-fluoro-3-pyridyl]-2-thienyl]methyl]-1,2,4-triazol-3-one Trifluoroacetate] | 11000 | > 100000 | 0.8 |  |  |  |  | 
5 | NCC(Cn1ncn(-c2ccc(Br)nc2)c1=O)=C(F)F [Example 7, 2-[2-(aminomethyl)-3,3-difluoro-allyl]-4-(6-bromo-3-pyridyl)-1,2,4-triazol-3-one Trifluoroacetate] |  | > 100000 | 9.4 | 6100 |  |  |  | 

Results, then the compound that gave them:

Row | IC50 ([1]; 1 mM putrescine) [nM] | IC50 ([2]; 0.5 mM tyramine) [nM] | IC50 (recombinant human VAP-1; [4]) [nM] | IC50 ([3]; 1 mM benzylamine) [nM] | IC50 ([1]; 1 mM putrescine substrate) [nM] | IC50 ([2]; 0.5 mM tyramine substrate) [nM] | IC50 (recombinant human VAP-1; [5]) [nM] | IC50 ([3]; 1 mM benzylamine substrate) [nM] | Compound
6 | > 10000 | > 100000 | 1.5 | 6500 |  |  |  |  | COc1cc(-c2ccc(Cn3cnn(CC(CN)=C(F)F)c3=O)s2)cc(OC)c1OC [Example 105, 2-[2-(aminomethyl)-3,3-difluoro-allyl]-4-[[5-(3,4,5-trimethoxyphenyl)-2-thienyl]methyl]-1,2,4-triazol-3-one Trifluoroacetate]
7 | 73000 | 21000 | 1 | 21000 |  |  |  |  | Cc1c(-c2ccc(Cn3cnn(CC(CN)=C(F)F)c3=O)s2)ccc2c1NCCO2 [Example 139, 2-[2-(aminomethyl)-3,3-difluoro-allyl]-4-[[5-(5-methyl-3,4-dihydro-2H-1,4-benzoxazin-6-yl)-2-thienyl]methyl]-1,2,4-triazol-3-one Trifluoroacetate]
8 |  |  |  |  | 9000 | > 100000 | 0.8 | 37000 | Cc1cc(C#Cc2cnc3c(c2)NCCO3)cnc1-n1cnn(CC(CN)=C(F)F)c1=O [Example 244, 2-[2-(aminomethyl)-3,3-difluoro-allyl]-4-[5-[2-(2,3-dihydro-1H-pyrido[2,3-b][1,4]oxazin-7-yl)ethynyl]-3-methyl-2-pyridyl]-1,2,4-triazol-3-one ditrifluoroacetate]
9 | 6600 | > 100000 | 0.3 | 26100 |  |  |  |  | Cc1cc(-c2csc(Cn3cnn(CC(CN)=C(F)F)c3=O)c2)cc2c1NC(=O)CC2 [Example 151, 6-[5-[[1-[2-(aminomethyl)-3,3-difluoro-allyl]-5-oxo-1,2,4-triazol-4-yl]methyl]-3-thienyl]-8-methyl-3,4-dihydro-1H-quinolin-2-one Trifluoroacetate]
10 | > 10000 | > 10000 | 0.7 |  |  |  |  |  | CN(C)c1ccc(C#Cc2ccc(Cn3cnn(CC(CN)=C(F)F)c3=O)s2)cn1 [Example 162, 2-[2-(aminomethyl)-3,3-difluoro-allyl]-4-[[5-[2-[6-(dimethylamino)-3-pyridyl]ethynyl]-2-thienyl]methyl]-1,2,4-triazol-3-one Trifluoroacetate]
